Where two headings read alike, the source gives them in different places.
Tests used:
MycN = target: T1, MycN (Homo sapiens, UniProt P04198); experiment: Degradation of MycN protein in SK-N-BE(2) cells, JESS/Western blot of lysates; format: cell-based; conditions: SKNBE2, 24 h; for Dmax at 0.5 µM: read-out: % Degradation of MycN (SKNBE2) 24 h, 0.5 μM; for Dmax at 1 µM: read-out: % Degradation of MycN (SKNBE2) 24 h, 1 μM; for Dmax at 3 µM: read-out: % Degradation of MycN (SKNBE2) 24 h, 3 μM; for Dmax at 6 µM: read-out: % Degradation of MycN (SKNBE2) 24 h, 6 μM
T1 construct: endogenous in cells; host or cells: SK-N-BE(2)
T1 sequence (P04198 1-464): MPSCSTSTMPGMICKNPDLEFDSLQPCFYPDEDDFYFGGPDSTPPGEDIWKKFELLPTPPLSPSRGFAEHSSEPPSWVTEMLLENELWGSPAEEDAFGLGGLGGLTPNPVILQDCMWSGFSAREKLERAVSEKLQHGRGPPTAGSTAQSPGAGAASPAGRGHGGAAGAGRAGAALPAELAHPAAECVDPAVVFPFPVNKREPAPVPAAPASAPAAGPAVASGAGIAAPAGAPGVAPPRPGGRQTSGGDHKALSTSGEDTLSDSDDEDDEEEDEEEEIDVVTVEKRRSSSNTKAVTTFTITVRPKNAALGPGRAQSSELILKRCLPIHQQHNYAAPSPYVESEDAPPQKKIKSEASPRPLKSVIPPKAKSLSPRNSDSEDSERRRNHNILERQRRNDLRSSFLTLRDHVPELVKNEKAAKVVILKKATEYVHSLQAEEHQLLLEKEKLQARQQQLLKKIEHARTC
Method in brief: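 SK-N-BE(2) adherent cells (5E5 per well of a 6 well dish) were grown 24 hrs, then exposed to compounds diluted 1 in 20 in media, with DMSO controls, for 24 hrs. Cells were scraped, pelleted, PBS washed and lysed in RIPA buffer cocktail; after BCA protein quantitation, n-myc was detected by chemiluminescence on JESS/Western blot with tubulin and GAPDH loading controls read in the near infra red channel.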

MycC = target: T2, MycC (Homo sapiens, UniProt P01106); experiment: Degradation of MycC protein in L363 cells, JESS/Western blot of lysates; format: cell-based; conditions: L-363, 24 h; for Dmax at 0.5 µM: read-out: % Degradation of MycC (L-363) 24 h, 0.5 μM; for Dmax at 3 µM: read-out: % Degradation of MycC (L-363) 24 h, 3 μM; for Dmax at 6 µM: read-out: % Degradation of MycC (L-363) 24 h, 6 μM; for Dmax at 1 µM: read-out: % Degradation of MycC (L-363) 24 h, 1 μM
T2 construct: endogenous in cells; host or cells: L363
Method in brief: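 L363 suspension cells were seeded at 1E6 cells per well and exposed to compound (stock 10 mM in DMSO) for 24 hrs. Cells were collected, spun down, rinsed with PBS, lysed in RIPA buffer cocktail on ice, clarified and kept at −80 degrees. Lysate protein was quantified by BCA, and c-myc was measured on JESS by chemiluminescence with tubulin and GAPDH loading controls in the NIR channel.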

T2 sequence (P01106 whole entry): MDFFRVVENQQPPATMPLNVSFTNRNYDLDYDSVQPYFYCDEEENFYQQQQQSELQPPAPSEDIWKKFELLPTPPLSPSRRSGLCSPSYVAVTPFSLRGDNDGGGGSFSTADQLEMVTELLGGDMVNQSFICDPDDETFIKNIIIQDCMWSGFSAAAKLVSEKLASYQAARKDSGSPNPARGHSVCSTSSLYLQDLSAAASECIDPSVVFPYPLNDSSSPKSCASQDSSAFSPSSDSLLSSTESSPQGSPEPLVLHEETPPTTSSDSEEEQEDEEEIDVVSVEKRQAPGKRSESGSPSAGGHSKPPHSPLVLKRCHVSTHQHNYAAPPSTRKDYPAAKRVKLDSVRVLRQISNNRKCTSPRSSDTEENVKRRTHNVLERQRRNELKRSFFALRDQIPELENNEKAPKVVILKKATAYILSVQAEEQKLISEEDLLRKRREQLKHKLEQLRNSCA

Compound	Dmax at 0.5 µM (MycN; SKNBE2 cells, 24 h, 0.5 μM) [%]	Dmax at 1 µM (MycN; SKNBE2 cells, 24 h, 1 μM) [%]	Dmax at 3 µM (MycN; SKNBE2 cells, 24 h, 3 μM) [%]	Dmax at 6 µM (MycN; SKNBE2 cells, 24 h, 6 μM) [%]	Dmax at 0.5 µM (MycC; L-363 cells, 24 h) [%]	Dmax at 3 µM (MycC; L-363 cells, 24 h, 3 μM) [%]	Dmax at 6 µM (MycC; L-363 cells, 24 h, 6 μM) [%]	Dmax at 1 µM (MycC; L-363 cells, 24 h, 1 μM) [%]	Dmax at 0.5 µM (MycN) [%]	Dmax at 1 µM (MycN) [%]	Dmax at 3 µM (MycN) [%]	Dmax at 6 µM (MycN) [%]	Dmax at 1 µM (MycC) [%]	Dmax at 3 µM (MycC) [%]	Dmax at 6 µM (MycC) [%]
NC[C@@H]1CCCN(c2nccc(Nc3cc(C4CC4)[nH]n3)n2)C1 [Compound 24, 2-[(3S)-3-(aminomethyl)-1-piperidyl]-N-(5-cyclopropyl-1H-pyrazol-3-yl)pyrimidin-4-amine]	20 to 49	50 to 79	80 to 100	80 to 100	< 20	80 to 100	80 to 100	–	–	–	–	–	–	–	–
c1cc(Nc2cc(C3CC3)[nH]n2)nc(N2CC3(CCNC3)C2)n1 [Compound 25, N-(5-cyclopropyl-1H-pyrazol-3-yl)-2-(2,7-diazaspiro[3.4]octan-2-yl)pyrimidin-4-amine]	20 to 49	20 to 49	20 to 49	20 to 49	< 20	–	–	< 20	–	–	–	–	–	–	–
CN1CCC2(C1)CN(c1nccc(Nc3cc(C4CC4)[nH]n3)n1)C2 [Compound 26, N-(5-cyclopropyl-1H-pyrazol-3-yl)-2-(7-methyl-2,7-diazaspiro[3.4]octan-2-yl)pyrimidin-4-amine]	20 to 49	20 to 49	20 to 49	50 to 79	20 to 49	< 20	–	20 to 49	–	–	–	–	–	–	–
CN1CC(C2CCN(c3nccc(Nc4cc(C5CCCC5)[nH]n4)n3)C2)C1 (stereo not drawn) [Compound 27, N-(5-cyclopentyl-1H-pyrazol-3-yl)-2-[3-(1-methylazetidin-3-yl)pyrrolidin-1-yl]pyrimidin-4-amine]	20 to 49	20 to 49	50 to 79	80 to 100	< 20	< 20	20 to 49	20 to 49	–	–	–	–	–	–	–
c1cc(Nc2cc(C3CCCC3)[nH]n2)nc(N2CCC(C3CNC3)C2)n1 (stereo not drawn) [Compound 28, 2-[3-(azetidin-3-yl)pyrrolidin-1-yl]-N-(5-cyclopentyl-1H-pyrazol-3-yl)pyrimidin-4-amine]	–	80 to 100	80 to 100	80 to 100	< 20	–	50 to 79	< 20	–	–	–	–	–	–	–
NC[C@H]1CCCN(c2nccc(Nc3cc(C4CC4)[nH]n3)n2)C1 [Compound 29, 2-[(3R)-3-(Aminomethyl)-1-piperidyl]-N-(5-cyclopropyl-1H-pyrazol-3-yl)pyrimidin-4-amine]	80 to 100	80 to 100	80 to 100	80 to 100	20 to 49	80 to 100	80 to 100	50 to 79	–	–	–	–	–	–	–
NCC12CC(C1)N(c1nccc(Nc3cc(C4CC4)[nH]n3)n1)C2 [Compound 30, 2-[4-(aminomethyl)-2-azabicyclo[2.1.1]hexan-2-yl]-N-(5-cyclopropyl-1H-pyrazol-3-yl)pyrimidin-4-amine]	–	–	–	–	–	–	–	–	< 20	50 to 79	80 to 100	80 to 100	20 to 49	80 to 100	80 to 100
CNCC12CC(C1)N(c1nccc(Nc3cc(C4CCCC4)[nH]n3)n1)C2 [Compound 31, N-(5-cyclopentyl-1H-pyrazol-3-yl)-2-[4-(methylaminomethyl)-2-azabicyclo[2.1.1]hexan-2-yl]pyrimidin-4-amine]	80 to 100	80 to 100	80 to 100	80 to 100	–	80 to 100	80 to 100	–	–	–	–	–	–	–	–
CNC[C@H]1CCN(c2nccc(Nc3cc(C4CCCC4)[nH]n3)n2)C1 [Compound 35, N-(5-cyclopentyl-1H-pyrazol-3-yl)-2-[(3R)-3-(methylaminomethyl)pyrrolidin-1-yl]pyrimidin-4-amine]	20 to 49	50 to 79	80 to 100	80 to 100	–	50 to 79	80 to 100	< 20	–	–	–	–	–	–	–
CNC[C@@H]1CCN(c2nccc(Nc3cc(C4CCCC4)[nH]n3)n2)C1 [Compound 36, N-(5-cyclopentyl-1H-pyrazol-3-yl)-2-[(3S)-3-(methylaminomethyl)pyrrolidin-1-yl]pyrimidin-4-amine]	20 to 49	< 20	80 to 100	80 to 100	< 20	< 20	80 to 100	20 to 49	–	–	–	–	–	–	–
CNC[C@@H]1CCCN(c2nccc(Nc3cc(C4CC4)[nH]n3)n2)C1 [Compound 37, N-(5-cyclopropyl-1H-pyrazol-3-yl)-2-[(3S)-3-(methylaminomethyl)-1-piperidyl]pyrimidin-4-amine]	20 to 49	20 to 49	50 to 79	80 to 100	–	< 20	–	< 20	–	–	–	–	–	–	–
CN1CC(C2CCN(c3nccc(Nc4cc(C5CC5)[nH]n4)n3)C2)C1 (stereo not drawn) [Compound 38, N-(5-Cyclopropyl-1H-pyrazol-3-yl)-2-[3-(1-methylazetidin-3-yl)pyrrolidin-1-yl]pyrimidin-4-amine]	20 to 49	20 to 49	20 to 49	50 to 79	< 20	< 20	< 20	< 20	–	–	–	–	–	–	–
CN1C[C@H]2CN(c3nccc(Nc4cc(C5CC5)[nH]n4)n3)C[C@H]21 [Compound 40, N-(5-Cyclopropyl-1H-pyrazol-3-yl)-2-[(1S,5S)-6-methyl-3,6-diazabicyclo[3.2.0]heptan-3-yl]pyrimidin-4-amine]	–	–	< 20	< 20	< 20	< 20	–	< 20	–	–	–	–	–	–	–
c1cc(Nc2cc(C3CC3)[nH]n2)nc(N2CCC3(CCNC3)C2)n1 (stereo not drawn) [Compound 42, N-(5-Cyclopropyl-1H-pyrazol-3-yl)-2-(2,7-diazaspiro[4.4]nonan-2-yl)pyrimidin-4-amine]	20 to 49	50 to 79	50 to 79	80 to 100	< 20	–	80 to 100	< 20	–	–	–	–	–	–	–
CN1CC2(CCCN(c3nccc(Nc4cc(C5CC5)[nH]n4)n3)C2)C1 [Compound 43]	20 to 49	20 to 49	20 to 49	50 to 79	20 to 49	20 to 49	< 20	< 20	–	–	–	–	–	–	–
CN1CC2(CCN(c3nccc(Nc4cc(C5CC5)[nH]n4)n3)CC2)C1 [Compound 44, N-(5-Cyclopropyl-1H-pyrazol-3-yl)-2-(2-methyl-2,7-diazaspiro[3.5]nonan-7-yl)pyrimidin-4-amine]	–	< 20	20 to 49	80 to 100	–	< 20	80 to 100	–	–	–	–	–	–	–	–
CNCC12CCC(C1)N(c1nccc(Nc3cc(C4CC4)[nH]n3)n1)C2 (stereo not drawn) [Compound 45, N-(5-Cyclopropyl-1H-pyrazol-3-yl)-2-[4-(methylaminomethyl)-2-azabicyclo[2.2.1]heptan-2-yl]pyrimidin-4-amine]	80 to 100	80 to 100	80 to 100	80 to 100	80 to 100	80 to 100	80 to 100	80 to 100	–	–	–	–	–	–	–
